Source: US12583820B2, “Broad spectrum antivirals against coronavirus” (priority 2020, dated 2026)
Read-outs that look alike come from different tables or passages of the source.

Key:
[1] = target: NV 3CLpro (Norovirus, UniProt Q83883); test: biochemical; format: biochemical; conditions: read-out: IC50 (μM) ± SD
[2] = tested on: NV in the replicon harboring cells (HG23 cells); test: microbe, parasite or virus in culture; format: cell-based, norovirus (NV); conditions: read-out: EC50 (μM) ± SD
[3] = tested on: HG23 cells
[4] = target: 3CLpro of MERS-CoV (Middle East respiratory syndrome-related coronavirus, UniProt K9N7C7); test: biochemical; format: biochemical
Sequence of 3CLpro of MERS-CoV (K9N7C7 3248-3553 limits assumed): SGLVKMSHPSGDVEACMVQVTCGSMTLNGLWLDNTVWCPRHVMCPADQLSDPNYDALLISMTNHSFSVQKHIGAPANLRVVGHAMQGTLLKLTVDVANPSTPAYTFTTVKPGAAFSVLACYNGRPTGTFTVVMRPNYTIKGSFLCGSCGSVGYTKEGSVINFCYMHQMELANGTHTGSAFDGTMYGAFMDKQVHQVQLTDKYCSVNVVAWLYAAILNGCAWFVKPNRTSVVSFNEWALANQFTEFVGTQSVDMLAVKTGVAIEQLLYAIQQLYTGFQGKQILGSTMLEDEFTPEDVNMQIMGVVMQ

[5] = target: 3CLpro of SARS-CoV (Severe acute respiratory syndrome coronavirus, UniProt P0C6X7); format: biochemical; conditions: read-out: IC50 in enzyme assay (μM) SARS-CoV
[6] = target: T1, 3CLpro of SARS-CoV-2 (Severe acute respiratory syndrome coronavirus 2, UniProt P0DTD1); test: biochemical; format: biochemical
T1 construct: The codon-optimized cDNA of full length of 3CLpro of SARS-CoV-2; 6xHis (N); made in house; pET-28a(+) vector (points to E. coli, my inference)

[7] = tested on: MERS-CoV; test: microbe, parasite or virus in culture; format: cell-based; conditions: for EC50: Middle East respiratory syndrome-related coronavirus, Huh-7, read-out: EC50 in cell culture (μM) MERS-CoV
[8] = tested on: MHV-1; test: microbe, parasite or virus in culture; format: cell-based, mouse hepatitis virus (MHV); conditions: Murine coronavirus, read-out: EC50 in cell culture (μM) MHV
[9] = tested on: FIPV; test: microbe, parasite or virus in culture; format: cell-based; conditions: Alphacoronavirus 1, CRFK, read-out: EC50 in cell culture (μM) FIPV
[10] = Nonspecific cytotoxic effects (CC50), CytoTox 96 kit
[11] = tested on: Huh-7, CRFK or CCL1 cells; test: as above; conditions: Huh-7, CRFK, or CCL1 cells, Table 7
[12] = read-out: MERS-CoV IC50 (uM) enzyme
[13] = read-out: MERS-CoV IC50(μM) Enzyme
[14] = read-out: IC50 in enzyme assay (μM) MERS-CoV
[15] = Huh-7, CRFK or CCL1 cells (confluent, 96-well plates)

Sequence of NV 3CLpro (Q83883 1101-1281): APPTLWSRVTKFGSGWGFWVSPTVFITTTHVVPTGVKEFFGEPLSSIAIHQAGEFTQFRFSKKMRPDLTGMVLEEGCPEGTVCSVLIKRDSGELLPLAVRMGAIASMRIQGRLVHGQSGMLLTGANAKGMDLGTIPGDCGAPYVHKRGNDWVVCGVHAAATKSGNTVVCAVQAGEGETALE

| Compound | IC50 [1] [µM] | EC50 [2] [µM] | CC50 [3] [nM] | also measured |
| --- | --- | --- | --- | --- |
| O=C(N[C@@H](CC1CCCCC1)C(=O)N[C@@H](C[C@@H]1CCNC1=O)C(O)S(=O)(=O)O)OC/C=C/c1cccc(Cl)c1 (some centres unmarked) [Compound 6s] | 0.16 ± 0.01 | 0.07 ± 0.02 | 28300 ± 2800 |  |
| CC(C)(OC(=O)N[C@@H](CC1CCCCC1)C(=O)N[C@H](C=O)C[C@@H]1CCNC1=O)c1cccc(Cl)c1 [Compound 5a (Scheme 2)] | 2.9 ± 0.9 | 3.7 ± 2.3 | > 100000 | IC50 [4, 12]: 11.5 µM |
| CC(C)(COC(=O)N[C@@H](CC1CCCCC1)C(=O)N[C@H](C=O)C[C@@H]1CCNC1=O)c1cccc(Cl)c1 [Compound 5d (Scheme 2)] | 0.23 ± 0.04 | 0.07 ± 0.01 | 13300 ± 1270 | IC50 [4, 13]: 1.9 µM |
| CC(C)(Cc1cccc(Cl)c1)OC(=O)N[C@@H](CC1CCCCC1)C(=O)N[C@H](C=O)C[C@@H]1CCNC1=O [Compound 5h (Scheme 2)] | 7.7 ± 1.7 | 5.4 ± 1.1 | 15600 ± 1800 | IC50 [4, 12]: > 10 µM |
| O=C(N[C@@H](CC1CCCCC1)C(=O)N[C@@H](C[C@@H]1CCNC1=O)C(O)S(=O)(=O)O)OC1(c2cccc(Cl)c2)CC1 (some centres unmarked) [Compound 6q] | 0.27 ± 0.04 | 0.18 ± 0.04 | 42300 ± 15600 |  |
| CC(C)C[C@H](NC(=O)OC1CCCCC1)C(=O)N[C@@H](C[C@@H]1CCNC1=O)C(O)S(=O)(=O)[O-].[Na+] (stereo partly drawn) [Compound 7a (Scheme 1), sodium (2S)-2-((S)-2-(((cyclohexyloxy)carbonyl)amino)-4-methylpentanamido)-1-hydroxy-3-((S)-2-oxopyrrolidin-3-yl)propane-1-sulfonate] |  |  |  | IC50 [4, 14]: 0.15 µM; IC50 [5]: 3.8 µM; IC50 [6]: 3500 nM; EC50 values against MERS-CoV in cell culture (in words) [7]: submicromolar; EC50 [7]: 0.08 µM; EC50 [8]: 0.08 µM; EC50 [9]: 0.07 µM; CC50 at 72 h [10, 15]: > 100000 nM |
| CC(C)C[C@H](NC(=O)OCCCc1cccc(Cl)c1)C(=O)N[C@H](C=O)C[C@@H]1CCNC1=O [Compound 5n] | 0.26 ± 0.08 | 0.16 ± 0.06 | > 100000 |  |
| Sodium (2S)-1-hydroxy-2-((S)-4-methyl-2-(((((1s,4S)-4-propylcyclohexyl) methoxy-d2) carbonyl) amino) pentanamido)-3-(2-oxopyrrolidin-3-yl) propane-1-sulfonate [Compound 9c] |  |  |  | CC50 [11]: > 100000 nM |
| CC(C)C[C@H](NC(=O)OCC(C)(C)Cc1cccc(Cl)c1)C(=O)N[C@@H](C[C@@H]1CCNC1=O)C(O)S(=O)(=O)O (some centres unmarked) [Compound 6o] | 0.16 ± 0.03 | 0.15 ± 0.08 | > 100000 |  |
| CC(C)C[C@H](NC(=O)OCC1CCC(F)(F)CC1)C(=O)N[C@@H](C[C@@H]1CCNC1=O)C(O)S(=O)(=O)O (stereo partly drawn) [Compound 7j (Scheme 1), sodium (2S)-2-((S)-2-((((4,4-difluorocyclohexyl)methoxy)carbonyl)amino)-4-methylpentan-amido)-1-hydroxy-3-((S)-2-oxopyrrolidin-3-yl)propane-1-sulfonate] |  |  |  | IC50 [4, 14]: 0.1 µM; IC50 [5]: 1.1 µM; EC50 [8]: 0.16 µM; EC50 [9]: 0.07 µM; CC50 at 72 h [10, 15]: > 100000 nM |
| CC(C)C[C@H](NC(=O)OC1CCC(F)(F)CC1)C(=O)N[C@@H](C[C@@H]1CCNC1=O)C(O)S(=O)(=O)[O-].[Na+] (stereo partly drawn) [Compound 7h (Scheme 1), sodium (2S)-2-((S)-2-((((4,4-difluorocyclohexyl)oxy)carbonyl)amino)-4-methylpentan-amido)-1-hydroxy-3-((S)-2-oxopyrrolidin-3-yl)propane-1-sulfonate] |  |  |  | IC50 [4, 14]: 0.08 µM; IC50 [5]: 2.2 µM; EC50 values against MERS-CoV in cell culture (in words) [7]: submicromolar; EC50 [7]: 0.21 µM; EC50 [8]: 0.11 µM; EC50 [9]: 0.12 µM; CC50 at 72 h [10, 15]: > 100000 nM |
| CC(C)C[C@H](NC(=O)OC1(c2cccc(Cl)c2)CC1)C(=O)N[C@@H](C[C@@H]1CCNC1=O)C(O)S(=O)(=O)O (some centres unmarked) [Compound 6r] | 0.25 ± 0.08 | 0.55 ± 0.08 | > 100000 |  |
| CC(C)C[C@H](NC(=O)OCCCc1ccccc1)C(=O)N[C@@H](C[C@@H]1CCNC1=O)C(O)S(=O)(=O)O (some centres unmarked) [Compound 6m] | 0.6 ± 0.14 | 0.85 ± 0.07 | > 100000 |  |
| O=C[C@H](C[C@@H]1CCNC1=O)NC(=O)[C@H](CC1CCCCC1)NC(=O)OCCCc1cccc(Cl)c1 [Compound 5j (Example 5)] |  | 0.08 ± 0.01 | 30300 ± 2830 |  |
| CCCCCC(=O)OC([C@H](C[C@@H]1CCNC1=O)NC(=O)[C@H](CC1CCCCC1)NC(=O)OCC(C)(C)Cc1cccc(Cl)c1)S(=O)(=O)O (some centres unmarked) [Compound 7l] |  | 0.08 ± 0.02 | 20700 ± 4030 |  |
| ((1s,4S)-4-Propylcyclohexyl) methyl-d2 ((2S)-4-methyl-1-oxo-1-(((2S)-1-oxo-3-(2-oxopyrrolidin-3-yl) propan-2-yl) amino) pentan-2-yl) carbamate [Compound 9b] |  |  |  | CC50 [11]: > 100000 nM |
| CC(C)C[C@H](NC(=O)OC(C)C1CCC(F)(F)CC1)C(=O)N[C@@H](C[C@@H]1CCNC1=O)C(O)S(=O)(=O)O (stereo partly drawn) [Compound 12c, Sodium (2S)-2-((2S)-2-(((1-(4,4-difluorocyclohexyl)ethoxy)carbonyl)amino)-4-methylpentan amido)-1-hydroxy-3-((S)-2-oxopyrrolidin-3-yl)propane-1-sulfonate] |  |  |  | IC50 [4]: 0.12 µM; IC50 [6]: 200 nM; CC50 at 72 h [10]: > 100000 nM |
| CC(C)C[C@H](NC(=O)OCCCc1cccc(Cl)c1)C(=O)N[C@@H](C[C@@H]1CCNC1=O)C(O)S(=O)(=O)O (some centres unmarked) [Compound 6n] | 0.19 ± 0.06 | 0.09 ± 0.01 | > 100000 |  |
| CCCC1CCC(COC(=O)NC(CC(C)C)C(=O)NC(CC2CCNC2=O)C(O)S(=O)(=O)O)CC1 [Compound 8c, Sodium (2S)-1-hydroxy-2-((S)-4-methyl-2-(((((1r,4R)-4-propylcyclohexyl)methoxy)carbonyl)amino)pentanamido)-3-(2-oxopyrrolidin-3-yl) propane-1-sulfonate] |  |  |  | IC50 [4]: 0.11 µM; IC50 [6]: 210 nM; CC50 at 72 h [10]: > 100000 nM |
| Sodium (2S)-2-((S)-2-((((4,4-difluorocyclohexyl) methoxy-d2) carbonyl) amino)-4-methylpentanamido)-1-hydroxy-3-(2-oxopyrrolidin-3-yl) propane-1-sulfonate [Compound 11c] |  |  |  | CC50 [11]: > 100000 nM |
| Sodium (2S)-1-hydroxy-2-((S)-4-methyl-2-(((((1s,4S)-4-propylcyclohexyl)oxy)carbonyl) amino)pentanamido)-3-((S)-2-oxopyrrolidin-3-yl)propane-1-sulfonate [Compound 3c] |  |  |  | CC50 [11]: > 100000 nM |
| CC(C)C[C@H](NC(=O)OCC(C)(C)c1ccccc1)C(=O)N[C@H](C=O)C[C@@H]1CCNC1=O [Compound 5f (Scheme 2)] | 0.45 ± 0.07 | 0.65 ± 0.07 | > 100000 | IC50 [4, 13]: 0.8 µM |
| CC(C)C[C@H](NC(=O)OC/C=C/c1cccc(Cl)c1)C(=O)N[C@@H](C[C@@H]1CCNC1=O)C(O)S(=O)(=O)O (some centres unmarked) [Compound 6t] | 0.11 ± 0.02 | 0.08 ± 0.02 | > 100000 |  |
| CC(C)C[C@H](NC(=O)OCC(C)(C)Cc1cccc(Cl)c1)C(=O)N[C@H](C=O)C[C@@H]1CCNC1=O [Compound 5o] |  | 0.14 ± 0.04 | > 100000 |  |
| CC(C)C[C@H](NC(=O)OCCCc1ccccc1)C(=O)N[C@H](C=O)C[C@@H]1CCNC1=O [Compound 5m] | 0.75 ± 0.07 | 0.77 ± 0.06 | > 100000 |  |
| CC(C)C[C@H](NC(=O)OC(C)(C)Cc1cccc(Cl)c1)C(=O)N[C@H](C=O)C[C@@H]1CCNC1=O [Compound 5i (Scheme 2)] | 1.2 ± 0.5 | 0.9 ± 0.21 | > 100000 | IC50 [4, 12]: 1.1 µM |
